Measurements: patent publication US20120129764A1 (priority 2009, published 2012)

Legend:
PA (FluB) = assay type: binding, influenza B virus
PA (FluA) = assay type: binding, influenza A virus

| Sequence | IC50 (PA (FluB)) | IC50 (PA (FluA)) | competition for binding to FluB PA (PA (FluB)) | competition for binding to FluA PA (PA (FluA)) |
| --- | --- | --- | --- | --- |
| MDVNPTLLFIDVPAQ [PB11-15AL10I,K11D, ---------ID----] | > 3000 nM | – | – | – |
| MDVNPCLLFLKVPAQ [PB11-15AT6C, -----C---------] | > 3000 nM | 43.6 nM | – | – |
| MDVNPTFLFLKVPAQ [PB11-15AL7F, ------F--------] | > 3000 nM | – | – | – |
| MDVNPHLLFLKVPAQ [PB11-15AT6H, -----H---------] | > 3000 nM | – | – | – |
| MNINPYFLFIDVPIQ [PB11-15B, -NI--YF--ID--I-, reference compound] | 45 nM | > 3000 nM | blocked FluB PA | not FluA PA binding |
| MDVNPTLLFLKVPAQ [PB11-15A, reference compound] | > 3000 nM | – | not FluB PA binding | – |
| MDVNPFLLFLKVPAQ [PB11-15AT6F] | 750 nM | 2.84 nM | – | – |
| MDVNPYFLFLKVPAQ [PB11-15AT6Y,L7F] | 345 nM | 7.51 nM | also to FluB PA, albeit with less affinity than PB11-15B | competed for binding to FluA PA |
| MDVNPWLLFLKVPAQ [PB11-15AT6W] | 628 nM | 3.4 nM | – | – |
| MDVNPYLLFLKVPAQ [PB11-15AT6Y] | 107 nM | 21.6 nM | binding to FluB PA increased | decreased binding of FluA PA compared to the double mutant, yet binding was still better than with wild type peptide |
| MNINPTLLFLKVPIQ [PB11-15AD2N,V3I,L14I, -NI----------I-] | > 3000 nM | – | – | – |
| MNINPTLLFLKVPAQ [PB11-15AD2N,V3I, -NI------------] | > 3000 nM | – | – | – |
